{
  "source": "patent US12454494B2",
  "about": "“Process for the reduction of gas emission from farm manure” (Alzchem Trostberg GmbH, priority 2018, dated 2025)",
  "tested_on": "cattle liquid manure",
  "test": "Example 5: methane and CO2 emissions from cattle liquid manure during 170 days storage with Compositions 1, 2, 4, 5, 6",
  "details": "cf. Example 5",
  "procedure": "After stirring, the pH value and conductivity in the mixture were measured, and then the wide-neck container was immediately sealed tightly. An opening was drilled in the lid of the wide-neck container, in which a sealed gas storage bag (nominal volume 5.6 liters) was connected and in which the released gas volume was collected. This structure prevented atmospheric oxygen from entering the wide-neck container. This prevented CO2 from the air from falsifying the measurement results. The mixture was stored for exactly 170 days without stirring or agitation at a temperature of 23±1° C. and at an air pressure of 960 to 980 hPa and at 493 m above standard sea level (NHN). At regular intervals, the filled gas storage bag was exchanged, the stored gas volume was determined volumetrically, and the gas composition was analyzed by gas chromatography. […] After stirring, the pH value and conductivity in the mixture were measured, and then the wide-neck container was immediately sealed tightly. […] At regular intervals, the filled gas storage bag was exchanged, the stored gas volume was determined volumetrically, and the gas composition was analyzed by gas chromatography. […] After stirring, the pH value and conductivity in the mixture were measured, and then the wide-neck container was immediately sealed tightly. […]",
  "data": [
    {"smiles": "[Ca+2].[OH-].[OH-]", "note": "[calcium hydroxide]", "values": [
      {"measurement": "Effect alone on the emission of methane and carbon dioxide", "result": "additional effect"}
    ]},
    {"smiles": "O=C([O-])[O-].[Ca+2]", "note": "[calcium carbonate]", "values": [
      {"measurement": "Effect alone on the emission of methane and carbon dioxide", "result": "no impact"}
    ]}
  ]
}
